Source: patent US20260317367A1, “SALTS INCLUDING CRYSTALLINE SALTS OF 25-HYDROXY-CHOLEST-5-EN-3-SULFATE AND METHODS FOR PREPARING SAME” (Durect Corporation, priority 2022, published 2026)
Structures can show the parent of a compound that is named as a salt.

Legend:
[1] = Dynamic vapor sorption (DVS), hygroscopicity; format: physicochemical; conditions: DVS
From the text: Dynamic vapor sorption (DVS) measures the uptake of a vapor (typically water) by a sample when exposed to a changing relative humidity. The loss of water can also be measured as relative humidity is decreased. Hygroscopic materials tend to absorb water more readily than non-hygroscopic. In some cases, hydrates absorb water to create higher-order hydrates (e.g., a monohydrate converting to a dihydrate when exposed to increasingly humid conditions). In some salts of the disclosure, moisture is retained upon exposure in a DVS experiment and little or no weight loss is observed upon heating from room temperature. In such experiments, the hygroscopic nature of the salt under study may indicate the formation of a hydrate from an anhydrate. […] Exemplary methods for collecting DVS data are set forth in Example 26.
Dynamic vapor sorption data was collected on a Surface Measurement System DVS Intrinsic instrument. The samples were not dried prior to analysis. Sorption and desorption data were collected over a range from 5% to 95% RH in 10% RH increments under a nitrogen purge. The equilibrium criteria used for the analyses were 0.001 dm/dt weight change in 5 minutes with a minimum step time of 30 minutes and maximum equilibration time of 180 minutes with a 3 minute data logging interval. Data were not corrected for the initial moisture content of the sample.

[2] = Humidity / water activity stability of crystalline 25HC3S sodium forms; format: physicochemical
[3] = system: lipid biosynthesis; conditions: shown previously; cited from earlier work
[4] = system: cholesterol secretion and degradation; conditions: shown previously; cited from earlier work

**Q.** Which “Hygroscopicity (in words)” value [1] does the source give for `CC(CCCC(C)(C)O)C1CCC2C3CC=C4CC(OS(=O)(=O)O)CCC4(C)C3CCC12C` (centres unmarked) [Form I, reference compound] here?
**A.** The value was “hygroscopic”.

**Q.** What about the “Water activity above which a liquid crystal may form” value ([2]; high water activities) of the same compound?
**A.** Its value is “above 0.73”.

**Q.** With `C[C@H](CCCC(C)(C)O)[C@H]1CCC2C3CC=C4C[C@@H](OS(=O)(=O)O)CC[C@]4(C)C3CC[C@@]21C` (stereo partly drawn) [Salt 25HC3S, [(3S,10R,13R,17R)-17-[(1R)-5-hydroxy-1,5-dimethyl-hexyl]-10,13-dimethyl-2,3,4,7,8,9,11,12,14,15,16,17-dodecahydro-1H-cyclopenta[a]phenanthren-3-yl]sulfate] as the compound, how does the “Effect on lipid biosynthesis” value [3] read?
**A.** The value was “decreases”.

**Q.** What about the “Effect on cholesterol secretion and degradation” value [4] of the same compound?
**A.** The value was “increases”.

**Q.** With `C[C@H](CCCC(C)(C)O)[C@H]1CC[C@H]2[C@@H]3CC=C4C[C@@H](OS(=O)(=O)[O-])CC[C@]4(C)[C@H]3CC[C@]12C.[Na+]` [crystalline 25HC3S sodium, Sodium [(3S,10R,13R,17R)-17-[(1R)-5-hydroxy-1,5-dimethyl-hexyl]-10,13-dimethyl-2,3,4,7,8,9,11,12,14,15,16,17-dodecahydro-1H-cyclopenta[a]phenanthren-3-yl]sulfate] as the compound, how does the “Behaviour under humid conditions (in words)” value ([2]; humid conditions) read?
**A.** Its value is “stabilizes as a hydrate”.
